Source: patent publication US20260167623A1 (NIKANG THERAPEUTICS, INC., priority 2022, published 2026)
pIC50: −log10 of the molar value.

Tests used:
CDK2 [1] = target: T1, CDK2 (Homo sapiens, UniProt P24941); test: Inhibition of CDK2: phospho-Rb (S807/811) HTRF measurement in OVCAR3 cells, 24 h; format: cell-based; details: 24 h compound treatment, read-out: pRB_OVCAR3_24h
T1 construct: High-Throughput Measurement of Cellular Endogenous CDK2; endogenous in cells; host or cells: OVCAR3
Outline: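 IC50 came from a four-parameter fit of DMSO-normalized TR-FRET ratios (665/620 nm) reporting phospho-Rb S807/811. Lysates were taken from OVCAR3 cultures treated 24 h with compound (0.3 to 10,000 nM) and incubated 4 h at room temperature with the antibody pair.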

CDK2 [2] = target: T1, CDK2; test: High-throughput HTRF measurement of cellular endogenous CDK2 level (degradation, DC50/Dmax) in OVCAR3 cells, 6 h; format: cell-based; details: 6 h compound treatment, HTRF total CDK2, read-out: DC50_OVCAR3_6h
Method: High-Throughput Measurement of Cellular Endogenous CDK2
Effects of compounds on cellular CDK2 level were monitored by a high-throughput HTRF assay.
To determine half maximal degradation concentration (DC50) and maximum degradation level (Dmax) values of compounds, cellular CDK2 level was measured in 96-well format using HTRF total CDK2 cellular kit (Cat #64CDK2TPEG) from Cisbio.
On Day 1, OVCAR3 cells were seeded into 96-well tissue-culture treated plates at 20,000 cells/well in 200 μL and incubated overnight at 37° C. in CO2 atmosphere. On Day 2 cells were treated with compounds at concentration ranging from 0.03 to 1,000 nM using HP D300 digital dispenser. 6 hours after compound treatment, cell culture media was removed by flicking the plate and tapping the plate against clean paper towel. Immediately 30 μL 1× lysis buffer was supplemented from the kit and added to each well and the plate is incubated at room temperature on shaker for 30 min. After homogenization by pipetting up and down, 8 μL cell lysate from 96-well cell culture plate was transferred to 384-well small volume white detection plate. 2 μL premixed detection solution was added and the plate is covered with sealer. To prepare the detection solution, d2 conjugated-CDK2 antibody and Eu-cryptate conjugated CDK2 antibody were diluted into detection buffer following manufacturer's instruction. Detection plates were incubated overnight at room temperature and read on ClarioStar (BMG Labtech) in TR-FRET mode (665 nM and 620 nM). The TR-FRET ratio (665 nM/620 nM) was plotted against the compound concentration and normalized to DMSO controls (0% degradation) and lysis buffer controls (100% degradation). Half maximal degradation concentration (DC 50) […] were calculated with a four-parameter logistic fit using GraphPad Prism (version 8; La Jolla, CA).
In the table below, AA indicates a DC50 of greater than or equal to 0.5 nM but less than 1 nM; A indicates a DC50 of greater than or equal to 1 nM but less than or equal to 10 nM; B indicates a DC50 of greater than 10 nM but less than or equal to 100 nM; C indicates a DC50 of greater than 100 nM but less than or equal to 1 μM; and D indicates a DC50 of greater than 1 μM […] but less than or equal to 5 μM. NT means not tested.

pIC50 (CDK2 [1])	DC50 (CDK2 [2]) [nM]	SMILES
6.30 to 7.00	10 to 100	Cn1nc(N2CCC(=O)NC2=O)c2ccc(C3CCN(Cc4cccc(S(=O)(=O)N5CC[C@H](Nc6ncc(Cl)cn6)[C@H](F)C5)c4)CC3)cc21 [Example 27]
6.30 to 7.00	10 to 100	Cn1nc(N2CCC(=O)NC2=O)c2ccc(C3CCN(CC4CCN(c5cc(F)cc(S(=O)(=O)N6CCC(Nc7ncc(OC(F)F)cn7)CC6)c5)CC4)CC3)cc21 [Example 175, 1-(6-(1-((1-(3-((4-((5-(difluoromethoxy)pyrimidin-2-yl)amino)piperidin-1-yl)sulfonyl)-5-fluorophenyl)piperidin-4-yl)methyl)piperidin-4-yl)-1-methyl-1H-indazol-3-yl)dihydropyrimidine-2,4(1H,3H)-dione]
7.00 to 9.00	1 to 10	Cn1nc(N2CCC(=O)NC2=O)c2ccc(C3CCN(CC4CCN(c5cccc(S(=O)(=O)N6CCC(Nc7ncc(Br)cn7)CC6)c5)CC4)CC3)cc21 [Example 199, 1-(6-(1-((1-(3-((4-((5-bromopyrimidin-2-yl)amino)piperidin-1-yl)sulfonyl)phenyl)piperidin-4-yl)methyl)piperidin-4-yl)-1-methyl-1H-indazol-3-yl)dihydropyrimidine-2,4(1H,3H)-dione]
7.00 to 9.00	1 to 10	Cn1c(=O)n(C2CCC(=O)NC2=O)c2ccc(C3CCN(CC4CCN(c5cccc(S(=O)(=O)N6CCC(Nc7ncc(C(F)(F)F)cn7)CC6)c5)CC4)CC3)cc21 (stereo not drawn) [Example 177, 3-(3-methyl-2-oxo-5-(1-((1-(3-((4-((5-(trifluoromethyl)pyrimidin-2-yl)amino)piperidin-1-yl)sulfonyl)phenyl)piperidin-4-yl)methyl)piperidin-4-yl)-2,3-dihydro-1H-benzo[d]imidazol-1-yl)piperidine-2,6-dione]
7.00 to 9.00	10 to 100	Cn1nc(N2CCC(=O)NC2=O)c2ccc(C3CCN(CC4CN(c5cccc(S(=O)(=O)N6CCC(Nc7ncc(C(F)(F)F)cn7)CC6)c5)C4)CC3)cc21 [Example 108, 1-(1-methyl-6-(1-((1-(3-((4-((5-(trifluoromethyl)pyrimidin-2-yl)amino)-piperidin-1-yl)sulfonyl)phenyl)azetidin-3-yl)methyl)piperidin-4-yl)-1H-indazol-3-yl)dihydropyrimidine-2,4(1H,3H)-dione]
6.30 to 7.00	1 to 10	Cc1ncsc1-c1ccc([C@H](C)NC(=O)[C@@H]2C[C@@H](O)CN2C(=O)[C@@H](NC(=O)C2(F)CC2)C(C)(C)SCC2CCN(Cc3cccc(S(=O)(=O)N4CCC(Nc5ncc(C(F)(F)F)cn5)CC4)c3)CC2)cc1 [Example 8, (2S,4R)-1-((R)-2-(1-fluorocyclopropane-1-carboxamido)-3-methyl-3-(((1-(3-((4-((5-(trifluoromethyl)pyrimidin-2-yl)amino)-piperidin-1-yl)sulfonyl)benzyl)piperidin-4-yl)methyl)thio)butanoyl)-4-hydroxy-N-((S)-1-(4-(4-methylthiazol-5-yl)phenyl)-ethyl)pyrrolidine-2-carboxamide]
7.00 to 9.00	1 to 10	Cn1nc(N2CCC(=O)NC2=O)c2ccc(C3CCN(Cc4cccc(S(=O)(=O)N5CCC(Nc6ncc(C(F)(F)F)cn6)CC5)c4)CC3)cc21 [Example 1]
7.00 to 9.00	1 to 10	Cn1nc(N2CCC(=O)NC2=O)c2ccc(C3CCN(CC4CCN(c5cc(F)cc(S(=O)(=O)N6CCC(Nc7ncc(C(F)(F)F)cn7)CC6)c5)CC4)CC3)cc21 [Example 149, 1-(6-(1-((1-(3-fluoro-5-((4-((5-(trifluoromethyl)pyrimidin-2-yl)amino)piperidin-1-yl)sulfonyl)phenyl)piperidin-4-yl)methyl)piperidin-4-yl)-1-methyl-1H-indazol-3-yl)dihydropyrimidine-2,4(1H,3H)-dione]
7.00 to 9.00	10 to 100	Cn1cc(C2CCC(=O)NC2=O)c2ccc(C3CCN(CC4CCN(c5cccc(S(=O)(=O)N6CCC(Nc7ncc(C(F)(F)F)cn7)CC6)c5)CC4)CC3)cc21 (stereo not drawn) [Example 251, 3-(1-methyl-6-(1-((1-(3-((4-((5-(trifluoromethyl)pyrimidin-2-yl)amino)piperidin-1-yl)sulfonyl)phenyl)piperidin-4-yl)methyl)piperidin-4-yl)-1H-indol-3-yl)piperidine-2,6-dione]
7.00 to 9.00	1 to 10	O=C1CCC(n2c(=O)oc3c(C4CCN(CC5CCN(c6cccc(S(=O)(=O)N7CCC(Nc8ncc(C(F)(F)F)cn8)CC7)c6)CC5)CC4)cccc32)C(=O)N1 (stereo not drawn) [Example 201, 3-(2-oxo-7-(1-((1-(3-((4-((5-(trifluoromethyl)pyrimidin-2-yl)amino)piperidin-1-yl)sulfonyl)phenyl)piperidin-4-yl)methyl)piperidin-4-yl)benzo[d]oxazol-3(2H)-yl)piperidine-2,6-dione]
7.00 to 9.00	1 to 10	CC(C)c1cnc(NC2CCN(S(=O)(=O)c3cccc(N4CCC(CN5CCC(c6ccc7c(N8CCC(=O)NC8=O)nn(C)c7c6)CC5)CC4)c3)CC2)nc1 [Example 244, 1-(6-(1-((1-(3-((4-((5-isopropylpyrimidin-2-yl)amino)piperidin-1-yl)sulfonyl)phenyl)piperidin-4-yl)methyl)piperidin-4-yl)-1-methyl-1H-indazol-3-yl)dihydropyrimidine-2,4(1H,3H)-dione]
7.00 to 9.00	10 to 100	Cn1nc(N2CCC(=O)NC2=O)c2ccc(C3CCN(CC4CCN(c5ccc(S(=O)(=O)N6CCC(Nc7ncc(C(F)(F)F)cn7)CC6)cc5)CC4)CC3)cc21 [Example 165, 1-(1-methyl-6-(1-((1-(4-((4-((5-(trifluoromethyl)pyrimidin-2-yl)amino)piperidin-1-yl)sulfonyl)phenyl)piperidin-4-yl)methyl)piperidin-4-yl)-1H-indazol-3-yl)dihydropyrimidine-2,4(1H,3H)-dione]
7.00 to 9.00	10 to 100	CN(CCCN1CCC(c2cccc3c2n(C)c(=O)n3C2CCC(=O)NC2=O)CC1)c1cccc(S(=O)(=O)N2CCC(Nc3ncc(C(F)(F)F)cn3)CC2)c1 (stereo not drawn) [Example 190, 3-(3-methyl-4-(1-(3-(methyl(3-((4-((5-(trifluoromethyl)pyrimidin-2-yl)amino)piperidin-1-yl)sulfonyl)phenyl)amino)propyl)piperidin-4-yl)-2-oxo-2,3-dihydro-1H-benzo[d]imidazol-1-yl)piperidine-2,6-dione]
6.30 to 7.00	10 to 100	Cn1nc(N2CCC(=O)NC2=O)c2ccc(C3CCN(CC#Cc4cccc(S(=O)(=O)N5CCC(Nc6ncc(Cl)cn6)CC5)c4)CC3)cc21 [Example 226, 1-(6-(1-(3-(3-((4-((5-chloropyrimidin-2-yl)amino)piperidin-1-yl)sulfonyl)phenyl)prop-2-yn-1-yl)piperidin-4-yl)-1-methyl-1H-indazol-3-yl)dihydropyrimidine-2,4(1H,3H)-dione]
7.00 to 9.00	1 to 10	Cn1nc(N2CCC(=O)NC2=O)c2ccc(C3CCN(CC4CCN(c5cccc(S(=O)(=O)N6CCC(Nc7ncc(Cl)cn7)CC6)c5)C(=O)C4)CC3)cc21 (stereo not drawn) [Example 234, 1-(6-(1-((1-(3-((4-((5-chloropyrimidin-2-yl)amino)piperidin-1-yl)sulfonyl)phenyl)-2-oxopiperidin-4-yl)methyl)piperidin-4-yl)-1-methyl-1H-indazol-3-yl)dihydropyrimidine-2,4(1H,3H)-dione]
